The test system of test [1] is Mycobacterium tuberculosis H37Rv strain. Description: Anti-tubercular properties (alamar blue microplate MIC). As to conditions: 168 h, seven days at 37° C., read-out: anti-mycobacterial activity (MIC). The format is cell-based.
The next test concerns the target T1, DNA gyrase from E. coli (Escherichia coli, UniProt P0AES4+P0AES6).
T1 construct: purchased Inspiralis
Description: Inhibitory activities on E. coli DNA gyrase (Inspiralis assay). The class given is biochemical. How it is done:
Inhibitory potencies were investigated utilizing the Inspiralis assay on streptavidin-coated 96-well microtiter plates. First, the plates were rehydrated with buffer (20 mM Tris-HCl with pH 7.6, 0.01% w/v BSA, 0.05% v/v Tween 20, 137 mM NaCl) and the biotinylated oligonucleotide was then immobilized. After washing off the unbound oligonucleotide, the enzyme test was performed. […] Reaction solutions were incubated at 37° C. for 30 min. After that, the TF buffer (50 mM NaOAc with pH 5.0, 50 mM NaCl and 50 mM MgCl2) was added to terminate the enzymatic reaction. After additional incubation for 30 min at rt, during which biotinoligonucleotide-plasmid triplex was formed, the unbound plasmid was washed off using TF buffer and SybrGOLD in T10 buffer (10 mM Tris HCl with pH 8.0 and 1 mM EDTA) was added. The fluorescence was measured with a microplate reader (BioTek Synergy H4, excitation: 485 nm, emission: 535 nm). Initial screening was done at 100 or 10 μM concentration of inhibitors. […] GraphPad Prism software was used to calculate the IC50 values. The result is given as the average value of three independent measurements.

Test [2] concerns Staphylococcus aureus ATCC 29213. Description: In vitro antibacterial activity (MIC, CLSI M07-A10 dilution). The format is cell-based. Particulars: ATCC29213.
In test [3] the test system is Staphylococcus aureus ATCC BAA-1556 (MERSA resistant). The description is as above. The class given is cell-based. As to conditions: ATCCBAA1556.
Test [4] deals with Staphylococcus epidermidis. Described as above. The class given is cell-based.
Test [5] concerns Bacillus subtilis MTCC 441. The test is described as above. As to conditions: MTCC441. The format is cell-based.
For test [6], the system named is Enterococcus faecium ATCC 35667. Described as above. The format is cell-based. Particulars: ATCC35667.
In test [7] the test system is Enterococcus faecium ATCC 51559 (VRE resistant). The test is described as above. The class given is cell-based.
The test system of test [8] is Klebsiella pneumonia MTCC 618. Described as above. The class given is cell-based. Particulars: Klebsiella pneumoniae, MTCC618.
In test [9] the test system is Escherichia coli MTCC 443. The test is described as above. The class given is cell-based. Particulars: MTCC443.
Test [10] deals with Pseudomonas aeruginosa MTCC 741. The description is as above. The class given is cell-based. As to conditions: MTCC741.

In general, MIC refers to the least concentration at which growth counts as inhibited. As a reminder, the IC50 is the midpoint of a concentration-inhibition curve.

In brackets after ≈: the same amount, converted by molar mass. Where two headings read alike, the source gives them in different places.

T1 sequence (P0AES4 whole entry, one chain of several): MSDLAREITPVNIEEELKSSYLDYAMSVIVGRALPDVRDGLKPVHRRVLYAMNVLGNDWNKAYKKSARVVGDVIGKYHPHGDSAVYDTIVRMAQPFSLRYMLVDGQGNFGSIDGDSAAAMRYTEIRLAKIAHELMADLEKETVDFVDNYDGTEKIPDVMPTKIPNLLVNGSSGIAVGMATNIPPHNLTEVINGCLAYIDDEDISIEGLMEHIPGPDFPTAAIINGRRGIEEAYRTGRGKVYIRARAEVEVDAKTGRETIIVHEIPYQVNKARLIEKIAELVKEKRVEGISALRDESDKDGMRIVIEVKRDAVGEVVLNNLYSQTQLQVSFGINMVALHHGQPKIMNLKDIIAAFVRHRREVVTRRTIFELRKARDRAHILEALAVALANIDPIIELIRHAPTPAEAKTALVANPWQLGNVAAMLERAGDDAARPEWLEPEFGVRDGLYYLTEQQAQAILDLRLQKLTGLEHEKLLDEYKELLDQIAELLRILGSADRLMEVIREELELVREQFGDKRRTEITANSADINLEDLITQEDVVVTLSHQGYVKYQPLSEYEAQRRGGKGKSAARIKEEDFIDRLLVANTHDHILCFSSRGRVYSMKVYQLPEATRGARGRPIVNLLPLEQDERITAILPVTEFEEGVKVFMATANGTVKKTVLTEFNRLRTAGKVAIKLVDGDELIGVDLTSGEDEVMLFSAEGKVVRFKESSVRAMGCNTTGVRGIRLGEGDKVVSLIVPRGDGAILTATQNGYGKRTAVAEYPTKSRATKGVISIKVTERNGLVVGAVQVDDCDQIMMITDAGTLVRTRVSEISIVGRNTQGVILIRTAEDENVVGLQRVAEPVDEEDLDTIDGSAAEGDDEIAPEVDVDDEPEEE

On to `CNc1cc(F)cc2cc3[nH]c(-c4ccc(C(=O)O)cc4CN(C)C4CCCCC4)cc3nc12` [Compound 4, 3-((cyclohexyl(methyl)amino)methyl)-4-(7-fluoro-5-(methylamino)-1H-pyrrolo[3,2-b]quinolin-2-yl)benzoic acid], for which the MIC in test [1] came out at 8 µg/mL (≈ 17.4 µM). Besides, the IC50 at DNA gyrase from E. coli came out at 32 nM.

Regarding `CCCCCN(C)Cc1cc(C(=O)O)ccc1-c1cc2nc3c(NC)cc(F)cc3cc2[nH]1` [Compound 6, 4-(7-fluoro-5-(methylamino)-1H-pyrrolo[3,2-b]quinolin-2-yl)-3-((methyl(pentyl)amino)methyl)benzoic acid], the MIC in [2] amounted to 1 µg/mL (≈ 2.23 µM); in [3] it was 1 µg/mL (≈ 2.23 µM); in test [4], 1 µg/mL (≈ 2.23 µM); in test [5], 0.75 µg/mL (≈ 1.67 µM); in test [6] it was 1 µg/mL (≈ 2.23 µM); in test [7], 1.25 µg/mL (≈ 2.79 µM). Also, the MIC in test [8] (Klebsiella pneumonia MTCC 618, read-out: MIC) worked out at 1.25 µg/mL (≈ 2.79 µM); in test [9] it was 8 µg/mL (≈ 17.8 µM); in test [10], 1 µg/mL (≈ 2.23 µM).

Consider `CN[C@H](CC(C)C)C(=O)N[C@H]1C(=O)N[C@@H](CC(N)=O)C(=O)N[C@H]2C(=O)N[C@H]3C(=O)N[C@H](C(=O)N[C@H](C(=O)O)c4cc(O)cc(O)c4-c4cc3ccc4O)[C@H](O)c3ccc(c(Cl)c3)Oc3cc2cc(c3O[C@@H]2O[C@H](CO)[C@@H](O)[C@H](O)[C@H]2O[C@H]2C[C@](C)(N)[C@H](O)[C@H](C)O2)Oc2ccc(cc2Cl)[C@H]1O` [Vancomycin, reference compound], for which the minimum inhibitory concentration (MIC) in [8] is greater than 128 µg/mL.

For the origin of these results see patent US11780838B1, “Pyrrolo[3,2-b]quinoline compounds as antibacterial agents” (King Faisal University, priority 2023, dated 2023).
